Among the data in patent publication US20230024442A1, “BIFUNCTIONAL COMPOUNDS FOR GRADING BTK VIA UBIQUITIN PROTEOSOME PATHWAY” (NURIX THERAPEUTICS, INC., priority 2019, published 2023) are DC50 values, retold here.

This test deals with T1, BTK (Homo sapiens, UniProt Q06187).
T1 construct: endogenous in cells; host or cells: Ramos (ATCC CRL-1596)
T1 sequence (Q06187 whole entry): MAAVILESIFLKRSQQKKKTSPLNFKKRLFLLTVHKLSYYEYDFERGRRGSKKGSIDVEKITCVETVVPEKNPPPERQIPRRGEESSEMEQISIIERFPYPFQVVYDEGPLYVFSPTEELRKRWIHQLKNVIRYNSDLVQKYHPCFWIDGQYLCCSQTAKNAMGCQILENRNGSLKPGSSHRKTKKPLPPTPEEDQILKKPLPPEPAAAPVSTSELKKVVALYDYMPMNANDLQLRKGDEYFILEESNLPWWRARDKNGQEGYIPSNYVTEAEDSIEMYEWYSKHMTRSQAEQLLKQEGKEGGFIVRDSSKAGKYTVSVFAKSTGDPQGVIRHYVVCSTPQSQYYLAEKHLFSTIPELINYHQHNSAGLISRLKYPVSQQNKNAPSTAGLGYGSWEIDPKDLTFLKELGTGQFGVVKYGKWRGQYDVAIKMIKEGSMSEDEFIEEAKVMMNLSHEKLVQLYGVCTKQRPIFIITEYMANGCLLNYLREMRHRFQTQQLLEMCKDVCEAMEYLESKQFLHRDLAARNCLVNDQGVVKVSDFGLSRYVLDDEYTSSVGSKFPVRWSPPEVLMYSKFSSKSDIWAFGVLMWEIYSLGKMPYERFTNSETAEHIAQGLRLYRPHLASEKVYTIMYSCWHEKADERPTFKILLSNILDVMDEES
As to the kind of experiment: Cellular BTK HTRF Assay (BTK levels in Ramos cells). The format is cell-based. Conditions: Ramos cells, 50,000 cells, incubated four hours at 37° C.; BTK levels by Cisbio Total-BTK HTRF relative to DMSO-treated cells. On the procedure: Ramos (CRL-1596) cells were obtained from American Type Culture Collection and were grown in RPMI-1640 media (ATCC, 30-2001) supplemented with 10% heat-inactivated FBS (Corning Premium Fetal Bovine Serum from Fisher, MT35015CV).
Compounds of the present invention were added to 50,000 Ramos cells in round-bottom 96 well plates with a final DMSO concentration of […] and were incubated at 37° C. 5% CO2 for four hours. BTK levels were determined using Cisbio Total-BTK HTRF ([…] Time-Resolved Fluorescence) kit (63ADK064PEG) according to manufacturer's protocol. Briefly, cells were incubated in 1× supplied lysis buffer for 30 minutes. In an opaque white low volume 96 well plate (Cisbio, 66PL96005), cell lysate was combined with two different specific BTK antibodies, one conjugated with Eu^3+-Cryptate FRET donor and one conjugated with d2 FRET acceptor. Assay controls include wells containing cell lysate with only the Eu^3+-Cryptate FRET donor antibody and wells containing both HTRF antibodies and lysis buffer without cells or control lysate provided by Cisbio. HTRF ratio was calculated as (acceptor signal at 665 nm/donor signal at 620 nm)×10^4. Background HTRF levels were determined from the control well containing the donor, but no acceptor, antibody. Background HTRF levels were subtracted from all samples. Readouts were reported as HTRF levels relative to HTRF levels of DMSO-treated cells. Four-parameter non-linear regressions were performed in GraphPad Prism 7.02 to obtain DC50 values. DC50 values are provided in Table 7, wherein A<1 nM, 1 nM≤B≤10 nM, and 10 nM<C<1 μM.
Regarding `Cn1cc(-c2ccnc(-n3ncc4cc(C(C)(C)C)cc(F)c4c3=O)c2CO)cc(Nc2cc3n(n2)CCN(C(=O)CCCN2CCN(c4cc5c(cc4F)C(=O)N(C4CCC(=O)NC4=O)C5=O)CC2)C3)c1=O` (centres unmarked) [Compound 23], the DC50 was in the range of 1 to 10 nM.

For `Cn1cc(-c2ccnc(-n3ccc4cc(C5CC5)cc(F)c4c3=O)c2CO)cc(Nc2cc3n(n2)CCN(C(=O)CCOCCCc2ccc4c(c2)C(=O)N(C2CCC(=O)NC2=O)C4=O)C3)c1=O` (centres unmarked) [Compound 24], the DC50 fell in the range of 1 to 10 nM.

Consider `C[C@H]1CN(C(=O)[C@H]2C[C@@H](OCCNc3cccc4c3C(=O)N(C3CCC(=O)NC3=O)C4=O)C2)CCN1c1ccc(Nc2cc(-c3ccnc(N4CCn5c(cc6c5CC(C)(C)C6)C4=O)c3CO)cn(C)c2=O)nc1` (some centres unmarked) [Compound 25], for which the DC50 is below 1 nM.

`C[C@H]1CN(C(=O)CN2CCN(CCc3cccc4c3CN(C3CCC(=O)NC3=O)C4=O)CC2)CCN1c1ccc(Nc2cc(-c3ccnc(N4CCn5c(cc6c5CC(C)(C)C6)C4=O)c3CO)cn(C)c2=O)nc1` (some centres unmarked) [Compound 26] gave a DC50 of 1 to 10 nM.

The compound `C[C@H]1CN(C(=O)CN2CCN(Cc3cccc4c3CN(C3CCC(=O)NC3=O)C4=O)CC2)CCN1c1ccc(Nc2cc(-c3ccnc(N4CCn5c(cc6c5CC(C)(C)C6)C4=O)c3CO)cn(C)c2=O)nc1` (some centres unmarked) [Compound 27] gave a DC50 of 10 to 1000 nM.

Consider `C[C@H]1CN(C(=O)CCOCCCc2cccc3c2C(=O)N(C2CCC(=O)NC2=O)C3=O)CCN1c1ccc(Nc2cc(-c3ccnc(N4CCn5c(cc6c5CC(C)(C)C6)C4=O)c3CO)cn(C)c2=O)nc1` (some centres unmarked) [Compound 28], for which the DC50 lay within 1 to 10 nM.

With `C[C@H]1CN(C(=O)[C@H]2C[C@H](OCCCc3cccc4c3CN(C3CCC(=O)NC3=O)C4=O)C2)CCN1c1ccc(Nc2cc(-c3ccnc(N4CCn5c(cc6c5CC(C)(C)C6)C4=O)c3CO)cn(C)c2=O)nc1` (some centres unmarked) [Compound 29], the DC50 was in the range of 1 to 10 nM.

`C[C@H]1CN(C(=O)CN2CCN(CCCc3cccc4c3CN(C3CCC(=O)NC3=O)C4=O)CC2)CCN1c1ccc(Nc2cc(-c3ccnc(N4CCn5c(cc6c5CC(C)(C)C6)C4=O)c3CO)cn(C)c2=O)nc1` (some centres unmarked) [Compound 30] yielded a DC50 of 1 to 10 nM.

Turning to `C[C@H]1CN(C(=O)[C@H]2CC[C@H](Nc3cccc4c3C(=O)N(C3CCC(=O)NC3=O)C4=O)CC2)CCN1c1ccc(Nc2cc(-c3ccnc(N4CCn5c(cc6c5CC(C)(C)C6)C4=O)c3CO)cn(C)c2=O)nc1` (some centres unmarked) [Compound 31], the DC50 lay within 1 to 10 nM.

`C[C@H]1CN(C(=O)CN2CCN(CCCc3cccc4c3C(=O)N(C3CCC(=O)NC3=O)C4=O)CC2)CCN1c1ccc(Nc2cc(-c3ccnc(N4CCn5c(cc6c5CC(C)(C)C6)C4=O)c3CO)cn(C)c2=O)nc1` (some centres unmarked) [Compound 32] registered a DC50 of 1 to 10 nM.

Turning to `C[C@H]1CN(C(=O)CCCc2cccc3c2CN(C2CCC(=O)NC2=O)C3=O)CCN1c1ccc(Nc2cc(-c3ccnc(N4CCn5c(cc6c5CC(C)(C)C6)C4=O)c3CO)cn(C)c2=O)nc1` (some centres unmarked) [Compound 33], the DC50 lay in the range of 1 to 10 nM.

In the case of `C[C@H]1CN(C(=O)C2CC3(CC(Nc4cccc5c4C(=O)N(C4CCC(=O)NC4=O)C5=O)C3)C2)CCN1c1ccc(Nc2cc(-c3ccnc(N4CCn5c(cc6c5CC(C)(C)C6)C4=O)c3CO)cn(C)c2=O)nc1` (some centres unmarked) [Compound 34], the DC50 was in the range of 1 to 10 nM.

For the compound `C[C@H]1CN(C(=O)CNc2cccc3c2C(=O)N(C2CCC(=O)NC2=O)C3=O)CCN1c1ccc(Nc2cc(-c3ccnc(N4CCn5c(cc6c5CC(C)(C)C6)C4=O)c3CO)cn(C)c2=O)nc1` (some centres unmarked) [Compound 35], the DC50 was in the range of 1 to 10 nM.

With `C[C@H]1CN(C(=O)CCNc2cccc3c2C(=O)N(C2CCC(=O)NC2=O)C3=O)CCN1c1ccc(Nc2cc(-c3ccnc(N4CCn5c(cc6c5CC(C)(C)C6)C4=O)c3CO)cn(C)c2=O)nc1` (some centres unmarked) [Compound 36], the DC50 was in the range of 10 to 1000 nM.

For the compound `C[C@H]1CN(C(=O)CCCNc2cccc3c2C(=O)N(C2CCC(=O)NC2=O)C3=O)CCN1c1ccc(Nc2cc(-c3ccnc(N4CCn5c(cc6c5CC(C)(C)C6)C4=O)c3CO)cn(C)c2=O)nc1` (some centres unmarked) [Compound 37], the DC50 lay within 1 to 10 nM.

In turn, `C[C@H]1CN(C(=O)CCCCc2cccc3c2CN(C2CCC(=O)NC2=O)C3=O)CCN1c1ccc(Nc2cc(-c3ccnc(N4CCn5c(cc6c5CC(C)(C)C6)C4=O)c3CO)cn(C)c2=O)nc1` (some centres unmarked) [Compound 38] had a DC50 of 1 to 10 nM.

The compound `C[C@H]1CN(CCOCCOCCOCCOCCOCCNc2cccc3c2C(=O)N(C2CCC(=O)NC2=O)C3=O)CCN1c1ccc(Nc2cc(-c3ccnc(N4CCn5c(cc6c5CC(C)(C)C6)C4=O)c3CO)cn(C)c2=O)nc1` (some centres unmarked) [Compound 39] registered a DC50 of 1 to 10 nM.

In the case of `C[C@@H]1CN(CCOCCNc2cccc3c2C(=O)N(C2CCC(=O)NC2=O)C3=O)CCN1c1ccc(Nc2cc(-c3ccnc(N4CCn5c(cc6c5CC(C)(C)C6)C4=O)c3CO)cn(C)c2=O)nc1` (some centres unmarked) [Compound 40], the DC50 is below 1 nM.

In turn, `C[C@@H]1CN(CCOCCOCCOCCNc2cccc3c2C(=O)N(C2CCC(=O)NC2=O)C3=O)CCN1c1ccc(Nc2cc(-c3ccnc(N4CCn5c(cc6c5CC(C)(C)C6)C4=O)c3CO)cn(C)c2=O)nc1` (some centres unmarked) [Compound 41] came in with a DC50 of 1 to 10 nM.

The compound `C[C@H]1CN(C(=O)CCOCCN2CCN(CCOCCOCCNc3cccc4c3C(=O)N(C3CCC(=O)NC3=O)C4=O)CC2)CCN1c1ccc(Nc2cc(-c3ccnc(N4CCn5c(cc6c5CC(C)(C)C6)C4=O)c3CO)cn(C)c2=O)nc1` (some centres unmarked) [Compound 42] displayed a DC50 of 10 to 1000 nM.

In turn, `C[C@H]1CN(C(=O)CCOCCCc2cccc3c2CN(C2CCC(=O)NC2=O)C3=O)CCN1c1ccc(Nc2cc(-c3ccnc(N4CCn5c(cc6c5CC(C)(C)C6)C4=O)c3CO)cn(C)c2=O)nc1` (some centres unmarked) [Compound 43] displayed a DC50 of 1 to 10 nM.

For `C[C@@H]1CN(C(=O)N(C)CCOCCOCCOCCOCCCc2cccc3c2CN(C2CCC(=O)NC2=O)C3=O)CCN1c1ccc(Nc2cc(-c3ccnc(N4CCn5c(cc6c5CC(C)(C)C6)C4=O)c3CO)cn(C)c2=O)nc1` (some centres unmarked) [Compound 44], the DC50 lay in the range of 1 to 10 nM.

Compound `C[C@H]1CN(C(=O)N(C)CCOCCOCCOCCOCCOCCCc2cccc3c2CN(C2CCC(=O)NC2=O)C3=O)CCN1c1ccc(Nc2cc(-c3ccnc(N4CCn5c(cc6c5CC(C)(C)C6)C4=O)c3CO)cn(C)c2=O)nc1` (some centres unmarked) [Compound 45] yielded a DC50 of 1 to 10 nM.

As to `C[C@@H]1CN(C(=O)NCCCCCc2cccc3c2CN(C2CCC(=O)NC2=O)C3=O)CCN1c1ccc(Nc2cc(-c3ccnc(N4CCn5c(cc6c5CC(C)(C)C6)C4=O)c3CO)cn(C)c2=O)nc1` (some centres unmarked) [Compound 46], the DC50 fell in the range of 1 to 10 nM.

`C[C@H]1CN(C(=O)NCCOCCOCCOCCCc2cccc3c2CN(C2CCC(=O)NC2=O)C3=O)CCN1c1ccc(Nc2cc(-c3ccnc(N4CCn5c(cc6c5CC(C)(C)C6)C4=O)c3CO)cn(C)c2=O)nc1` (some centres unmarked) [Compound 47] returned a DC50 of 1 to 10 nM.

`C[C@@H]1CN(C(=O)NCCCCCCOCCCc2cccc3c2CN(C2CCC(=O)NC2=O)C3=O)CCN1c1ccc(Nc2cc(-c3ccnc(N4CCn5c(cc6c5CC(C)(C)C6)C4=O)c3CO)cn(C)c2=O)nc1` (some centres unmarked) [Compound 48] came in with a DC50 of 1 to 10 nM.

For `C[C@H]1CN(C(=O)CCOCCOCCOCCCc2cccc3c2CN(C2CCC(=O)NC2=O)C3=O)CCN1c1ccc(Nc2cc(-c3ccnc(N4CCn5c(cc6c5CC(C)(C)C6)C4=O)c3CO)cn(C)c2=O)nc1` (some centres unmarked) [Compound 49], the DC50 is 1 to 10 nM.

For `C[C@@H]1CN(C(=O)CCOCCOCCOCCOCCOCCNc2cccc3c2C(=O)N(C2CCC(=O)NC2=O)C3=O)CCN1c1ccc(Nc2cc(-c3ccnc(N4CCn5c(cc6c5CC(C)(C)C6)C4=O)c3CO)cn(C)c2=O)nc1` (some centres unmarked) [Compound 50], the DC50 was 1 to 10 nM.

Take `C[C@H]1CN(C(=O)CCOCCOCCOCCOCCNc2cccc3c2C(=O)N(C2CCC(=O)NC2=O)C3=O)CCN1c1ccc(Nc2cc(-c3ccnc(N4CCn5c(cc6c5CC(C)(C)C6)C4=O)c3CO)cn(C)c2=O)nc1` (some centres unmarked) [Compound 51]: the DC50 lay in the range of 1 to 10 nM.

Take `C[C@H]1CN(C(=O)CCOCCOCCOCCNc2cccc3c2C(=O)N(C2CCC(=O)NC2=O)C3=O)CCN1c1ccc(Nc2cc(-c3ccnc(N4CCn5c(cc6c5CC(C)(C)C6)C4=O)c3CO)cn(C)c2=O)nc1` (some centres unmarked) [Compound 52]: the DC50 is 1 to 10 nM.

Compound `C[C@H]1CN(C(=O)CCOCCOCCOCCOCCOCCCc2cccc3c2CN(C2CCC(=O)NC2=O)C3=O)CCN1c1ccc(Nc2cc(-c3ccnc(N4CCn5c(cc6c5CC(C)(C)C6)C4=O)c3CO)cn(C)c2=O)nc1` (some centres unmarked) [Compound 53] gave a DC50 below 1 nM.

`C[C@@H]1CN(C(=O)CCOCCOCCOCCOCCCc2cccc3c2CN(C2CCC(=O)NC2=O)C3=O)CCN1c1ccc(Nc2cc(-c3ccnc(N4CCn5c(cc6c5CC(C)(C)C6)C4=O)c3CO)cn(C)c2=O)nc1` (some centres unmarked) [Compound 54] returned a DC50 of 1 to 10 nM.

`C[C@H]1CN(C(=O)CCOCCNc2cccc3c2C(=O)N(C2CCC(=O)NC2=O)C3=O)CCN1c1ccc(Nc2cc(-c3ccnc(N4CCn5c(cc6c5CC(C)(C)C6)C4=O)c3CO)cn(C)c2=O)nc1` (some centres unmarked) [Compound 55] came in with a DC50 of 1 to 10 nM.

In turn, `C[C@@H]1CN(C(=O)CCCN2CCN(c3ccc4c(c3)C(=O)N(C3CCC(=O)NC3=O)C4=O)CC2)CCN1c1ccc(Nc2cc(-c3ccnc(N4CCn5c(cc6c5CC(C)(C)C6)C4=O)c3CO)cn(C)c2=O)nc1` (some centres unmarked) [Compound 56] yielded a DC50 of 1 to 10 nM.

In turn, `C[C@H]1CN(C(=O)CCOCCC(=O)Nc2cccc3c2CN(C2CCC(=O)NC2=O)C3=O)CCN1c1ccc(Nc2cc(-c3ccnc(N4CCn5c(cc6c5CC(C)(C)C6)C4=O)c3CO)cn(C)c2=O)nc1` (some centres unmarked) [Compound 57] came in with a DC50 of 1 to 10 nM.
